# In patent US20220378780A1, “PHARMACEUTICAL COMPOSITIONS COMPRISING POH DERIVATIVES” (NeOnc Technologies, Inc., priority 2019, published 2022):
# Entries after “also recorded” stand apart in the source; their conditions may differ. Read-outs that look alike come from different tables or passages of the source.
# Tests used:
# Toxicity studies in mice = assay type: in vivo
# From the text: (§1) Compared to both of its individual components, TMZ and POH, NEO212 exerts substantially greater cytotoxic activity, potentially via involvement of the pro-apoptotic module of the ER stress response mechanism, although its alkylating activity might contribute as well. As a next step in NEO212's development, in vivo experiments in immunodeficient murine CTCL models should be performed. We have attempted such models, but tumor take with our CTCL cell lines was unacceptably low, not inconsistent with reported challenges of achieving consistent tumor growth with these and other CTCL cell lines in general^57-59 It is conceivable that serial passage of positive tumors in mice would yield more aggressive cells, and we are considering pursuing this approach.
# HUT78 cells [1] = test: Cell proliferation by Trypan blue exclusion counting, HUT78; assay type: cell-based, human; conditions: HUT78, 1 μM
# From the text: (§2) 2. Material and methods 2.1. […] 2.2. […] 2.3. […] 2.4. […] 2.5.
# MyLa cells [2] = test: MTT cell viability assay, MyLa (Example 15); assay type: cell-based, human
# From the text: as §2
# HuT 78 cells = test: MTT assay on HuT 78 cells (Example 14); conditions: HuT 78, 72 hours
# Method: HuT 78 cells are cutaneous T lymphocytes derived from a patient with Sézary syndrome.
# HuT 78 cells were treated in vitro with (i) temozolomide (50, 100, 250 μM), (ii) POH-TMZ conjugate (“NEO212”, 25, 50, 100 μM), (iii) NEO412 which is the triple conjugate of temozolomide (TMZ), perillyl alcohol (POH), and linoleic acid (25, 50, 100, 250 μM), or (iv) vehicle alone. Seventy-two hours after the addition of drugs or vehicle, cell viability was determined by standard MTT (methylthiazoletetrazolium) assay.
# [3] = test system: tumor brain endothelial cells (TuBEC); test: MTT cytotoxicity assay, tumor brain endothelial cells; assay type: cell-based
# From the text: (§3) Cancer Lett. 2011 Mar. 28; 302(2):100-8.
# HUT78 cells [4] = test: FACS analysis of cell death with 7-AAD; assay type: cell-based, human; conditions: 72 hours
# From the text: as §2
# [5] = test system: TMZ resistant (U251TR) U251 cells; test: Colony forming assay, TMZ resistant U251TR; assay type: cell-based, human
# Method: (§4) Colony forming assays were carried out after cells were treated with TMZ alone, POH alone, and the TMZ-POH conjugate. […] Cancer Lett. 2011 Mar. 28; 302(2):100-8.
# [6] = test system: USC-02 glioma cancer stem cells; test: MTT cytotoxicity assay, USC-02; assay type: cell-based; conditions: USC-02, MTT
# From the text: as §3
# [7] = test system: U87, A172 and U251 human glioma cells; test: MTT cytotoxicity assay on human malignant glioma cells; assay type: cell-based
# From the text: In vitro efficacy of the present composition can be determined using methods well known in the art. For example, the cytotoxicity of the present monoterpene (or sesquiterpene) and/or the therapeutic agents may be studied by MTT [3-(4,5-dimethylthiazol-2-yl)-2,5-diphenyl tetrazolium bromide] cytotoxicity assay. MTT assay is based on the principle of uptake of MTT, a tetrazolium salt, by metabolically active cells where it is metabolized into a blue colored formazon product, which can be read spectrometrically. J. of Immunological Methods 65: 55 63, 1983. The cytotoxicity of the present monoterpene (or sesquiterpene) derivative and/or the therapeutic agents may be studied by colony formation assay. Functional assays for inhibition of VEGF secretion and IL-8 secretion may be performed via ELISA. Cell cycle block by the present monoterpene (or sesquiterpene) derivative and/or the therapeutic agents may be studied by standard propidium iodide (PI) staining and flow cytometry. Invasion inhibition may be studied by Boyden chambers. In this assay a layer of reconstituted basement membrane, Matrigel, is coated onto chemotaxis filters and acts as a barrier to the migration of cells in the Boyden chambers. Only cells with invasive capacity can cross the Matrigel barrier. Other assays include, but are not limited to cell viability assays, apoptosis assays, and morphological assays.
# Then U87, A172 and U251 cells were treated with dimethyl celecoxib bisPOH carbamate (POH-DMC) (e.g., synthesized by the method in Example 1), and the MTT cytotoxicity assays performed (FIG. 2).
# Then TMZ-resistant glioma cell lines U87, A172 and U251 cells were treated with temozolomide POH carbamate (POH-TMZ) (e.g., synthesized by the method in Example 3).
# [8] = test system: TMZ sensitive (U251) cells; test: Colony forming assay, TMZ sensitive U251; assay type: cell-based, human
# Method: as §4
# [9] = test system: TMZ sensitive cells (U251); test: MTT cytotoxicity assay, U251
# Method: (§5) MTT cytotoxicity assays were carried out after cells were treated with the TMZ-POH conjugate. The MTT cytotoxicity assays were carried out as described in Chen TC, et al. Green tea epigallocatechin gallate enhances therapeutic efficacy of temozolomide in orthotopic mouse glioblastoma models. Cancer Lett. 2011 Mar. 28; 302(2):100-8.
# [10] = test system: brain endothelial cells (BEC; confluent and subconfluent); test: MTT cytotoxicity assay, brain endothelial cells; assay type: cell-based
# From the text: as §3
# [11] = test system: CHOP, c-myc and cyclin D in HUT78, HUT102 and MyLa cells; test: Western blot of ER stress and proliferation markers; assay type: cell-based, human; conditions: for lowest concentration triggering near-maximal CHOP induction: 72 hours
# From the text: as §2
# HUT102 cells [12] = test: Cell proliferation by Trypan blue exclusion counting, HUT102; assay type: cell-based, human; conditions: HUT102, 1 μM
# From the text: as §2
# [13] = test system: TMZ resistant cells (U251TR); test: MTT cytotoxicity assay, U251TR
# Method: as §5
# HUT78 cells [14] = test: MTT cell viability assay, HUT78 (Example 15)
# Method: Pharmacological agents—NEO212 was dissolved in DMSO at 100 mM. TMZ was purchased from Sigma Aldrich (St. Louis, Mo.) and dissolved in DMSO (Santa Cruz Biotechnology, Dallas, Tex.) to a concentration of 50 mM. POH was purchased from Sigma-Aldrich and diluted in DMSO to 100 mM. […] Stock solutions of all drugs were stored at −20° C. Staurosporine (STSP) was purchased from Selleck Chemicals (Houston, Tex.), stored at 4° C. protected from light, and dissolved in DMSO before use. Ascorbic acid (AA) and beta-mercaptoethanol (b-ME) (Sigma Aldrich) were prepared fresh before use. Crystalline AA was dissolved in phosphate-buffered saline (PBS) to 25 mM; b-ME was diluted in medium to 25 mM. […] Cell lines—Three different human CTLC cell lines were used. […] Both media also contained 100 U/mL penicillin and 0.1 mg/mL streptomycin. Penicillin, streptomycin, and RPMI (prepared with raw materials from Cellgro/MediaTech, Manassas, Va.) were provided by the Cell Culture Core lab of the USC/Norris Comprehensive Cancer Center. […] Cells were kept in a humidified incubator at 37° C. and a 5% CO2 atmosphere. FBS was obtained from Omega Scientific (Tarzana, Calif.) and from X&Y Cell Culture (Kansas City, Mo.). […] MTT assay—Methylthiazoletetrazolium (MTT) assays were performed as follows. Cells were seeded into 96-well plates in a volume of 50 μL per well at 3.0-5.0×10^5 cells/mL. An additional 50 μL of medium containing various concentrations of drug (or vehicle) was added and the cells were incubated for different lengths of time. This was followed by the addition of 10 μL thiazolyl-blue tetrazolium (i.e., MTT; Sigma Aldrich) from a stock solution of 5 mg/mL in phosphate-buffered saline (PBS). Cells were returned to the incubator for 4 hours. Thereafter, the reaction was stopped and the cells were lysed by the addition of 100 μL solubilization solution (10% sodium dodecyl sulfate in 0.01 M hydrochloric acid). The 96-well plate was left in the cell culture incubator over night for complete solubilization of the MTT crystals, and the optical density (OD) of each well was determined the next day in an ELISA plate reader at 560 nm. The background value (=OD of control wells containing medium without cells+MTT+solubilization solution) was subtracted from all measured values. In individual experiments, each treatment condition was set up in quadruplicate, and each experiment was repeated several times independently. […] Cell proliferation analysis—Cell proliferation was assessed by counting cells over time. Independent cell cultures were exposed to different concentrations of NEO212. At different times, aliquots of cells were removed, mixed with Trypan blue, and counted in a hemocytometer. Blue cells were considered dead, whereas unstained cells were counted as live cells. […] Fluorescence-activated cell sorting (FACS) analysis—Cells were seeded in 6-well tissue culture plates at 2×10^5 cells/mL, followed by drug treatment. After 72 hours, cells were collected, washed twice with PBS, transferred to a microcentrifuge tube, and suspended in 200 μL of 1× binding buffer solution, which was made fresh from 10x binding buffer (0.2 μm sterile-filtered 0.1 M HEPES, pH 7.4; 1.4 M NaCl; 25 mM CaCl2)). Then 1 μL of a 1 mg/mL 7-amino-actinomycin D (7-AAD) solution (Thermo Fisher Scientific, Waltham, Mass.) was added. After 20 minutes of incubation on ice, cell fluorescence was analyzed on a FACSAria Flow Cytometer (Becton Dickinson Biosciences Ltd., Franklin Lakes, N.J.).
# [15] = test system: cleaved PARP and cleaved caspases 3 and 4 in HUT78, HUT102 and MyLa cells; test: Western blot of apoptosis markers (cleaved PARP-1, cleaved caspases); assay type: cell-based, human
# From the text: as §2
# normal astrocytes = test: MTT cytotoxicity assay, normal astrocytes; conditions: listed as TMZ-POH
# Method: as §5
# HUT102 cells [16] = test: MTT cell viability assay, HUT102 (Example 15); assay type: cell-based, human
# From the text: as §2
# [17] = Toxicity studies in Beagle dogs; assay type: in vivo; conditions: Beagle dogs (unpublished)
# From the text: as §1
# [18] = test system: ER stress (CHOP) in TMZ sensitive and resistant U251 glioma cells; test: Western blot of ER stress (CHOP) in U251 glioma cells; assay type: cell-based, human; conditions: 18 hr treatment
# Method: TMZ sensitive and resistant glioma cells Western blots were performed after TMZ sensitive and resistant glioma cells were treated with the TMZ-POH conjugate for 18 hr. […] Activation of the proapoptic protein CHOP was shown at concentrations as low as 60 uM of TMZ-POH.
# [19] = test system: USC-04 glioma cancer stem cells; test: MTT cytotoxicity assay, USC-04; assay type: cell-based; conditions: USC-04, MTT
# From the text: as §3
# MyLa cells [20] = test: Cell proliferation by Trypan blue exclusion counting, MyLa; assay type: cell-based, human; conditions: 1 μM
# From the text: as §2
compound,measurement,setting,value
C=C(C)C1CC=C(COC(=O)NC(=O)c2ncn3c(=O)n(C)nnc23)CC1 (centres unmarked) [NEO212],tolerability,Toxicity studies in mice,very well tolerated
same,proliferation-inhibitory effect,HUT78 cells [1],strongest effect
same,IC50,MyLa cells [2]; 72 hours,~130 µM
same,IC50,MyLa cells [2]; 96 hours,~85 µM
same,cytotoxic effect on MF cells in MTT assay,HuT 78 cells,pronounced cytotoxic effect
same,cytotoxicity in MTT assay,[3],did not induce significant cytotoxicity
same,cell death,"HUT78 cells [4]; HUT78, 1 μM",33%
same,cell death,"HUT78 cells [4]; HUT78, 30 μM",50%
same,cytotoxicity in colony forming assay,[5]; listed as POH-TMZ,substantially greater potency compared to POH alone
same,cytotoxicity in colony forming assay,[5]; listed as TMZ-POH,demonstrated cytotoxicity
same,IC50,[6],60 µM
same,cytotoxicity in MTT assay,[7],substantially higher kill rates
same,cytotoxicity in colony forming assay,[8]; listed as POH-TMZ,substantially greater potency compared to POH alone
same,cytotoxicity in colony forming assay,[8]; listed as TMZ-POH,demonstrated cytotoxicity
same,cytotoxicity in MTT assay,[9],demonstrated cytotoxicity
same,cytotoxicity in MTT assay,[10]; confluent BEC,did not induce significant cytotoxicity
same,cytotoxicity in MTT assay,"[10]; subconfluent BEC, high concentrations",Mild to moderate cytotoxicity
same,lowest concentration triggering near-maximal CHOP induction,[11]; HUT78 cells,0.1 µM
same,expression levels of c-myc and cyclin D proteins,[11]; HUT102 and MyLa cells,declined
same,lowest concentration triggering near-maximal CHOP induction,[11]; HUT102 cells,1.0 µM
same,concentration dependence of CHOP induction,"[11]; MyLa cells, 96 hours",gradual increase all the way up to 100 μM
same,induction of CHOP protein,[11]; all three CTCL cell lines,prominent induction of CHOP protein
same,proliferation-inhibitory effect,HUT102 cells [12],slightly less pronounced activity
same,cytotoxicity in MTT assay,[13],demonstrated cytotoxicity
same,reduction of viability,"HUT78 cells [14]; HUT78, 10 μM",over 50%
same,concentration of earliest effect on viability,"HUT78 cells [14]; HUT78, 24 hours, as low as",3 µM
same,IC50,"HUT78 cells [14]; HUT78, 48 hours",< 3 µM
same,IC50,"HUT78 cells [14]; HUT78, 72 hours",~4 µM
same,potency relative to that of TMZ,HUT78 cells [14]; HUT78 cells,over 100 fold
same,IC50,"HUT78 cells [14]; read-out: IC50 (50% decrease in viability), HUT78, 24 hours",8 µM
same,concentration at which apoptosis markers emerged,[15]; HUT78 and HUT102 cells,0.1 to 1.0 µM
same,concentration required for apoptosis markers,[15]; MyLa cells,30 µM
same,induction of apoptosis markers,[15]; all three CTCL cell lines,"appearance of cleaved PARP and cleaved (i.e., activated) caspases 3 and 4"
same,cytotoxicity in MTT assay,normal astrocytes,not towards normal astrocytes; also recorded: did not induce significant cytotoxicity
same,IC50,"HUT102 cells [16]; HUT102, 72 hours",9 µM
same,IC50,"HUT102 cells [16]; HUT102, 96 hours",3 µM
same,tolerability,[17],very well tolerated
same,concentration at which activation of CHOP was shown,[18]; as low as,60 µM
same,induction of ER stress (ERS),[18]; western blot,induces ER stress
same,IC50,[19],150 µM
same,proliferation-inhibitory effect,MyLa cells [20],weaker activity
